Experiments:
thromboxane synthetase [1] = conditions: cited from earlier work
[2] = tested on: histamine-induced bronchoconstriction; test: Specificity test: histamine-induced bronchoconstriction in the anesthetized guinea pig; assay type: in vivo; conditions: 1.0 mg/kg i.v.; histamine 5.0 μg/kg i.v.
Protocol: (§1) Male guinea pigs weighing 480-520 g are anesthetized with urethane (1.5 g/kg, i.p.). Spontaneous respiration is arrested with succinylchloline chloride (1.5 mg/kg, i.p.). The guinea pigs are artificially ventilated with a Palmer respiration pump through a tracheal cannula at a rate of 72 strokes/min and a stroke volume of 3 ml.
Pulmonary resistance and dynamic compliance are determined by the method described by Amdur and Mead, "Mechanics of Respiration in Unanesthetized Guinea Pigs", Amer. J. Physiol. 192, 364-368, as modified by Giles et al. (1973), "The Bronchodilator and Cardiac Stimulant Effects of Th 1165A, Salbutamol, and Isoproterenol", J. Pharmacol. Exp. Ther. 186, 472-481. Respiratory flow is measured with a Fleisch pneumotachograph (No. 000) and a Validyne (MP 45) differential pressure transducer. Transpulmonary pressure is determined by monitoring the difference between pressure in the external end of a tracheal cannula and the pressure in the pleural cavity by means of a Validyne MP 45 differential pressure transducer. […] The computer output of flow, pressure, volume, resistance and dynamic compliance are recorded on a Brush 260 recorder. Blood pressure is measured from a carotid artery with a Statham P23Db transducer and heart rate is derived from the pulse pressure. Both blood pressure and heart rate are recorded with the Buxco pulmonary mechanics computer. […]

Thromboxane synthetase [3] = target: T1, Thromboxane synthetase (Homo sapiens, UniProt P24557); test: Inhibition of thromboxane synthetase (platelet membrane preparation, 14C-arachidonic acid to thromboxane-B2); assay type: biochemical
T1 construct: from tissue; host or cells: blood platelets from fresh platelet-rich plasma (PRP), lysed membrane suspension
T1 sequence (P24557 1-533): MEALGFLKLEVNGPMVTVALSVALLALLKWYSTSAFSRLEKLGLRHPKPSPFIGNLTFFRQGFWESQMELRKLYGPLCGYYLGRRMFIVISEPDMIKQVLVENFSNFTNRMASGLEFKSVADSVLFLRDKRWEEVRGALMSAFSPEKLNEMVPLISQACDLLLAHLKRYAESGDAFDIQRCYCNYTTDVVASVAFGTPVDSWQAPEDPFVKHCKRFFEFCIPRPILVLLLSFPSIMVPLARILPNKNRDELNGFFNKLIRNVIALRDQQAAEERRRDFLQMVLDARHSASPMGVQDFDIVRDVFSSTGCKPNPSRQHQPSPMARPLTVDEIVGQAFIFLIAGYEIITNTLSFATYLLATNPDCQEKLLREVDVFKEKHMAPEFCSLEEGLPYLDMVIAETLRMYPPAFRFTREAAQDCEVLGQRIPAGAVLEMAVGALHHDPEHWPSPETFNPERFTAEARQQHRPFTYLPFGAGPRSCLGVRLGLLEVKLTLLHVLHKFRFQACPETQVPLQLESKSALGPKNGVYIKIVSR
Protocol: Thromboxane synthetase is prepared from fresh PRP according to the procedure of Nijkamp et al, supra. Briefly, a platelet pellet is washed in physiological saline, and the platelets lysed by a combination of freeze-thaw cycles and homogenizations. This platelet membrane suspension is divided into small aliquots and stored at -70° C. until used. Thromboxane synthetase activity is determined by incubating the platelet preparation with ^14 C-arachidonic acid in a reaction mixture containing epinephrine, reduced glutathione, and Tris-HCl buffer, pH 7.5. Thromboxane synthetase activity is determined in the presence of the test compound dissolved in methanol, or of the methanol control. The reaction is carried out for 3-5 minutes at 37° C. and stopped by the addition of 2N HCl. In some instances, aliquots of the reaction mixtures are spotted directly on Quantum thin layer plates for thin layer chromatography of reaction mixture components. In other experiments, the lipids in the reaction mixture are extracted into ethyl acetate. After the ethyl acetate is taken to dryness, the lipid residue is dissolved in ethanol and aliquots spotted on the thin layer plates. In either instance, the plates are developed using chloroform:methanol:acetic acid (90:5:5) as solvent system. […] The radioactivity that migrates in the area of thromboxane-B2 is then determined by liquid scintillation spectrometry.

[4] = tested on: arachidonic acid-induced bronchoconstriction; test: Inhibition of arachidonic acid-induced bronchoconstriction in the anesthetized guinea pig; assay type: in vivo
Protocol: as §1
Pulmonary resistance and dynamic compliance are determined by the method described by Amdur and Mead, "Mechanics of Respiration in Unanesthetized Guinea Pigs", Amer. J. Physiol. 192, 364-368, as modified by Giles et al. (1973), "The Bronchodilator and Cardiac Stimulant Effects of Th 1165A, Salbutamol, and Isoproterenol", J. Pharmacol. Exp. Ther. 186, 472-481. Respiratory flow is measured with a Fleisch pneumotachograph (No. 000) and a Validyne (MP 45) differential pressure transducer. Transpulmonary pressure is determined by monitoring the difference between pressure in the external end of a tracheal cannula and the pressure in the pleural cavity by means of a Validyne MP 45 differential pressure transducer. The flow and pressure signals are fed into an on-line analog Pulmonary Mechanics Computer (Buxco Electronics, Inc.) which provides calculation of pulmonary resistance and dynamic compliance. The computer output of flow, pressure, volume, resistance and dynamic compliance are recorded on a Brush 260 recorder. Blood pressure is measured from a carotid artery with a Statham P23Db transducer and heart rate is derived from the pulse pressure. Both blood pressure and heart rate are recorded with the Buxco pulmonary mechanics computer. All parameters are digitalized by a Data Logger, Model DL-12 Buxco electronics and recorded on a Texas Instrument silent 700 ASR printer.
Arachidonic acid (AA) (0.25 mg/kg i.v.) is administered to groups of 4-5 guinea pigs 15 minutes before and 3 and 10 minutes after the administration of the test compound (0.1, 0.3 and 1.0 mg/kg i.v.). The administration of AA causes substantial increases in pulmonary resistance (R) and decrease in dynamic compliance (C) of 70% and 50% respectively. […] The inhibitory effect of the test compound lasts for less than 10 minutes.

[5] = tested on: arachidonic acid induced platelet aggregation; test: Inhibition of arachidonic acid induced platelet aggregation in platelet-rich plasma; assay type: cell-based; conditions: arachidonic acid 800 μM, human PRP
Protocol: Venous blood is collected from the antecubital vein of human volunteers who are drug free for at least one week. The blood is collected by gravity into plastic transfer bags containing 0.38% sodium citrate as the anticoagulant. Platelet-rich plasma (PRP) is prepared by centrifuging the citrated blood at 200×g for 10 min at 25° C. Platelet-poor plasma (PPP) is obtained by centrifuging the PRP at 2500×g for 30 min at 25° C. Platelet aggregation is studied photometrically (Boron, Nature 194:927-929,1962) using a Chronolog aggregometer connected to a linear recorder. The test compound is dissolved in methanol and preincubated with PRP for 2.5 minutes at 37° C. Arachidonic acid (800 μM) dissolved in 0.1 M Tris-HCl buffer, pH 8.5, is then added and the optical transmission recorded for at least 3 minutes. The rate of increase in optical transmission, which is a measure of the initial velocity of aggregation, is measured by determining the slope of the steepest part of the curve.

Compound | inhibition of thromboxane synthetase (literature) (thromboxane synthetase [1]) | effect on histamine-induced increases in R and decreases in C [2] | inhibition at 1000 µM (Thromboxane synthetase [3]; at 1000 μM) | IC50 (Thromboxane synthetase [3]; read-out: I50 thromboxane synthetase) | duration of hypertension ([4]; 0.1, 0.3 and 1.0 mg/kg i.v.) | effect of compound alone on R, C or heart rate ([4]; 0.1, 0.3 and 1.0 mg/kg i.v.) | effect on blood pressure ([4]; 0.1, 0.3 and 1.0 mg/kg i.v.) | duration of inhibitory effect on AA-induced changes ([4]; 0.1-1.0 mg/kg i.v.) | effect on AA-induced changes in pulmonary resistance (R) and dynamic compliance (C) ([4]; 0.1-1.0 mg/kg i.v. given before AA 0.25 mg/kg i.v.) | IC50 ([5]; read-out: I50 (concentration to achieve 50% inhibition) of platelet aggregation) | inhibition at 1000 µM ([5]; screening concentration 1 mM, read-out: effectiveness in inhibiting platelet aggregation)
c1c[nH]cn1 [imidazole] | specific inhibitor |  |  |  |  |  |  |  |  |  | 
C(=Cc1ccccc1)Cn1ccnc1.Cl [test compound, 1-(3-phenyl-2-propenyl)-1H-imidazole, hydrochloride (1:1)] |  | not altered | 83% | 30 µM | up to 30 minutes | does not significantly alter | profound hypertension of long duration | less than 10 minutes | significant dose dependent decrease | 30 µM | 100%

— patent US4243671A, “Inhibition of thromboxane synthetase formation and arachidonic acid-induced platelet aggregation and bronchoconstriction” (E. R. Squibb & Sons, Inc., priority 1979, dated 1981)
